This is an account of results in PMC8878748, “Broad-Spectrum Antiviral Activity of the Amphibian Antimicrobial Peptide Temporin L and Its Analogs” (International Journal of Molecular Sciences, 2022).

Series [1] in a line: MTT cytotoxicity assay on Vero cells. The series is classed as cell-based. Conditions: MTT, calculated after 2 h of peptide treatment.
The test system of series [2] is poliovirus Sb-1. The series is classed as cell-based.
The subject of series [3] is CV-B3. The experiment in a line: Plaque reduction assay, CV-B3. Particulars: four experimental settings. The series is classed as cell-based, Enterovirus B (coxsackievirus B3, ATCC VR-688).
Series [4] deals with human erythrocytes. Conditions: for hemolytic activity: at their antiviral concentrations. The procedure:
The hemolytic activity of the peptides was determined using fresh human erythrocytes from healthy donors as reported previously. Briefly, the blood was centrifuged, and the erythrocytes were washed three times with 0.9% NaCl. Peptides were added to the erythrocyte suspension (5% v/v), at a final concentration ranging from 0.1 to 100 μM in a final volume of 100 μL. The samples were incubated with agitation at 37 °C for 60 min. The release of hemoglobin was monitored by measuring the absorbance (Abs) of the supernatant at 540 nm. The control for zero hemolysis (blank) consisted of erythrocytes suspended in the presence of peptide solvent. Hypotonically lysed erythrocytes were used as a standard for 100% hemolysis. The percentage of hemolysis was calculated using the equation: % hemolysis = [(Abssample − Absblank)/(Abstotal lysis − Absblank)] × 100

Series [5] concerns peripheral blood mononuclear cells (PBMCs). Kind of series: MTT cytotoxicity assay on PBMCs. The series is classed as cell-based, human. Conditions: 2 h and 24 h. The procedure:
Vero cells (ATCC CCL-81, Manassas, VA, USA) and Vero/hSLAM cells (ECACC 04091501, Porton Down, UK) and Madin Darby canine kidney (MDCK, CCL-34) were grown in Dulbecco’s Modified Eagle Medium (DMEM) with 4.5 g/L glucose (Microtech, Naples, Italy) supplemented with 100 IU/mL penicillin and 100 μg/mL streptomycin (Himedia, Naples, Italy) and 10% Fetal Bovine Serum (Microtech). PBMCs were isolated as follow. Buffy coats acquired from a healthy anonymous donor were used to isolate PBMCs on a Ficoll-Hypaque density gradient (Sigma-Aldrich) according to standard procedures. Then, PBMCs were grown (5 × 10^6/mL) in RPMI 1640 (Microtech) supplemented with 10% FBS, 60 IU/mL of interleukin-2 (IL-2, Sigma-Aldrich) and 2 µg/mL of phytohemagglutinin (PHA) (Sigma-Aldrich).
Vero cells were seeded in 96-well microtiter tissue culture plates (5 × 10^3 cells /well) and incubated for 24 h at 37 °C in 5% CO2. PBMCs were isolated and then cultured at a concentration of 1 × 10^5 cells/well.
The cytotoxicity for both cell types was evaluated by the MTT (Sigma-Aldrich) assay based on the reduction of the yellowish MTT to the insoluble and dark blue formazan by viable and metabolically active cells. Temporin-based peptides were tested at […] concentrations (0.1, 1, 6.25, 12.5, 25, 50 and 100 µM) after 2 and 24 h. At the end of incubation, 100 μL of an MTT solution (5 mg/mL) was added in each well and incubated for 3 h at 37 °C. The supernatant was discarded and 100 μL of DMSO 100% (Sigma Aldrich) was added (to dissolve the formazan salts) for 10 min with vigorous agitation at room temperature. Cytotoxicity was evaluated by spectrophotometric reading at 540 nm. The viability of Vero cells in each well was presented as a percentage of control cells. All experiments were performed in triplicate, and the means standard deviations are reported. Nonlinear regression analysis was performed using GraphPad Prism software (GraphPad Software, San Diego, CA, USA) to determine the CC50.
Background: Tetrazolium assays rely on reduction of a dye to a coloured formazan, in cell work by metabolically active cells.

Series [6] deals with MeV. Conditions: for IC50 / IC90: 2 h.
Series [7] has as its system influenza virus (subtype H1N1). Particulars: influenza virus (subtype, 2 h).
In series [8] the test system is HCoV-229E. Conditions: 2 h.
The conditions of series [9]: cited from earlier work.
Series [10] deals with HPIV-3. Particulars: 2 h.
The subject of series [11] is HCoV-OC43. Conditions: 2 h.

Read-outs that look alike come from different tables or passages of the source. Where a SMILES comes first, the peptide text is derived from it. [ ]: non-standard residue; d: D form. The star is where a group is joined. X1 = CC(C)CCC[C@@H](C)[C@H]1CC[C@H]2[C@@H]3CC=C4C[C@@H](OC(=O)CCOCCOCCOCCOCCNC(=O)C*)CC[C@]4(C)[C@H]3CC[C@]12C; dHyp = O=C(O)[C@H]1C[C@H](O)CN1; Undecanoyl = CCCCCCCCCCC(=O)*; Aic = NC1(C(=O)O)Cc2ccccc2C1; Nle = CCCC[C@H](N)C(=O)O A value given as a limit tells only on which side of the number the result lay.

What is called CC50 is the concentration that lowers cell viability or growth by half. Broadly, the IC50 is the point on the concentration scale where inhibition reaches its midpoint. The low end stands for higher potency, the high end for lower potency. One may read the IC90 as the concentration needed for an effect of 90%. High values mean weaker potency, low ones greater potency.

For `CC[C@H](C)[C@H](NC(=O)[C@H](CCCNC(=N)N)NC(=O)CNC(=O)[C@@H](CC(C)C)NC(=O)[C@H](Cc1ccccc1)NC(=O)[C@H](CCCCN)NC(=O)[C@H](CO)NC(=O)[C@H](Cc1ccccc1)NC(=O)[C@H](Cc1c[nH]c2ccccc12)NC(=O)[C@@H]1CCCN1C(=O)[C@@H](NC(=O)[C@@H](N)Cc1ccccc1)C(C)C)C(=O)N[C@@H](CC(C)C)C(N)=O` [TL1, H-Phe-Val-Pro-Trp-Phe-Ser-Lys-Phe-DLeu-Gly-Arg-Ile-Leu-NH2] (H-FVPWFSKF[dL]GRIL-NH2), the CC50 in series [1] is 42.2 µM. In series [2], the “infectivity of poliovirus Sb-1 in the presence of peptide” value is listed as “not altered”. Besides, the “infectivity of CV-B3 in the presence of peptide” value in [3] is “not altered”. In series [4], the hemolytic activity entry is reported as “practically devoid of hemolytic activity”. In addition, the “cytotoxicity on PBMCs” value in series [5] is given as “minor damage”. Further, the figures for the IC50 in series [6], in series [7] and in series [8] were above 50 µM, 6740 nM and 7660 nM, respectively. Also, the IC90 is above 50 µM in series [6], 12.5 µM in series [7] and 30.1 µM in [8]. Moreover, the “reduction of infectivity, MeV” value in series [6] (cell pretreatment assay, peptide 25 μM) is “over 40%”. Also, the “effect on MeV in the virus pretreatment assay” value in series [6] (virus pretreatment assay) is listed as “not affected”. Moreover, the “%Helix in DPC” value in series [9] (Table 1) and in series [9] (Table 2) was 42% throughout.
With `CC[C@H](C)[C@H](NC(=O)[C@H](CCCNC(=N)N)NC(=O)[C@H]1C[C@H](O)CN1C(=O)[C@@H](CC(C)C)NC(=O)[C@H](Cc1ccccc1)NC(=O)[C@H](CCCCN)NC(=O)[C@H](CO)NC(=O)[C@H](Cc1ccccc1)NC(=O)[C@H](Cc1c[nH]c2ccccc12)NC(=O)[C@@H]1CCCN1C(=O)[C@@H](NC(=O)[C@@H](N)Cc1ccccc1)C(C)C)C(=O)N[C@@H](CC(C)C)C(N)=O` [TL5, H-Phe-Val-Pro-Trp-Phe-Ser-Lys-Phe-DLeu-DHyp-Arg-Ile-Leu-NH2] (H-FVPWFSKF[dL][dHyp]RIL-NH2), the CC50 in series [1] was above 100 µM. The IC50 is above 50 µM in series [6]; above 50000 nM in series [7]; above 50 µM in [10]; above 50000 nM in [8]; above 50000 nM in series [11]. For the same compound, the IC90 in [6], in series [7], in [10], in series [8] and in series [11] was above 50 µM each time. Further, in series [9] (Table 2), the “%Helix in DPC” value is on record as 9%.
As for `CCCC[C@H](NC(=O)[C@@H](CC(C)C)NC(=O)[C@H](Cc1ccccc1)NC(=O)[C@H](CCCCN)NC(=O)[C@H](CO)NC(=O)[C@H](Cc1ccccc1)NC(=O)[C@H](Cc1c[nH]c2ccccc12)NC(=O)[C@@H]1CCCN1C(=O)[C@@H](NC(=O)[C@@H](N)Cc1ccccc1)C(C)C)C(=O)N[C@@H](CCCNC(=N)N)C(=O)N[C@H](C(=O)N[C@@H](CC(C)C)C(N)=O)[C@@H](C)CC` [TL6, H-Phe-Val-Pro-Trp-Phe-Ser-Lys-Phe-DLeu-Nle-Arg-Ile-Leu-NH2] (H-FVPWFSKF[dL][Nle]RIL-NH2), the CC50 in [1] is 64.5 µM. For the same compound, in [5], the “cytotoxicity on PBMCs” value is “minor damage”. The IC50 in series [6] came to 34.6 µM; in series [7], 2660 nM; in series [10], 32.4 µM; in series [8] it was 2080 nM; in series [11], 970 nM. Further, the IC90 in series [6] was above 50 µM; in series [7] it was 9.34 µM; in series [10], above 50 µM; in [8] it was 13.1 µM; in series [11], 10 µM. In series [9] (Table 2), the “%Helix in DPC” value is listed as 51%.
For `CCCC[C@H](NC(=O)[C@@H](CC(C)C)NC(=O)[C@H](Cc1ccccc1)NC(=O)[C@H](CCCCN)NC(=O)[C@H](CO)NC(=O)[C@H](Cc1ccccc1)NC(=O)[C@H](Cc1c[nH]c2ccccc12)NC(=O)[C@@H]1CCCN1C(=O)[C@@H](NC(=O)[C@H](Cc1ccccc1)NC(=O)[C@@H](N)CSCC(=O)NCCOCCOCCOCCOCCC(=O)O[C@H]1CC[C@@]2(C)C(=CC[C@H]3[C@@H]4CC[C@H]([C@H](C)CCCC(C)C)[C@@]4(C)CC[C@@H]32)C1)C(C)C)C(=O)N[C@@H](CCCNC(=N)N)C(=O)N[C@H](C(=O)N[C@@H](CC(C)C)C(N)=O)[C@@H](C)CC` [TL6.3, H-[Cholesterol-PEG4]-Cys-Phe-Val-Pro-Trp-Phe-Ser-Lys-Phe-DLeu-Nle-Arg-Ile-Leu-NH2] (H-C(X1)FVPWFSKF[dL][Nle]RIL-NH2; N-terminus assumed), in series [1], the 50% cytotoxic concentration (CC50) is above 100 µM. For the same compound, the “cytotoxicity on PBMCs” value in series [5] was “minor damage”. In [6], this compound displayed a half-inhibitory concentration (IC50) of 22.3 µM and an IC90 of 31.1 µM. In [7], inhibition was half-maximal at 2550 nM (IC50) and the IC90 was found to be 5.89 µM.
As for `CCCCCCCCCCC(=O)N[C@@H](Cc1ccccc1)C(=O)N[C@H](C(=O)N1CCC[C@H]1C(=O)N[C@@H](Cc1c[nH]c2ccccc12)C(=O)N[C@@H](Cc1ccccc1)C(=O)N[C@@H](CO)C(=O)N[C@@H](CCCCN)C(=O)N[C@@H](Cc1ccccc1)C(=O)N[C@H](CC(C)C)C(=O)N[C@@H](CCCC)C(=O)N[C@@H](CCCNC(=N)N)C(=O)N[C@H](C(=O)N[C@@H](CC(C)C)C(N)=O)[C@@H](C)CC)C(C)C` [TL6.5, H-Undecanoic acid-Phe-Val-Pro-Trp-Phe-Ser-Lys-Phe-DLeu-Nle-Arg-Ile-Leu-NH2] (Undecanoyl-FVPWFSKF[dL][Nle]RIL-NH2), in series [1], the CC50 was above 100 µM. For the same compound, in series [5], the “cytotoxicity on PBMCs” value is “minor damage”. In series [6], this compound registered an IC50 of 10 µM and an IC90 of 29.2 µM. In [7], the IC50 is below 100 nM and the IC90 was below 0.1 µM.
Turning to `CC[C@H](C)[C@H](NC(=O)[C@H](CCCNC(=N)N)NC(=O)C1(NC(=O)[C@@H](CC(C)C)NC(=O)[C@H](Cc2ccccc2)NC(=O)[C@H](CCCCN)NC(=O)[C@H](CO)NC(=O)[C@H](Cc2ccccc2)NC(=O)[C@H](Cc2c[nH]c3ccccc23)NC(=O)[C@@H]2CCCN2C(=O)[C@@H](NC(=O)[C@@H](N)Cc2ccccc2)C(C)C)Cc2ccccc2C1)C(=O)N[C@@H](CC(C)C)C(N)=O` [TL12, H-Phe-Val-Pro-Trp-Phe-Ser-Lys-Phe-DLeu-Aic-Arg-Ile-Leu-NH2] (H-FVPWFSKF[dL][Aic]RIL-NH2), the CC50 in series [1] is 8.28 µM. Moreover, the IC50 in series [6] came to 30.4 µM; in series [7], 710 nM; in series [10] it was 33.8 µM; in series [8], 740 nM; in series [11], 620 nM. Moreover, the IC90 in [6] was above 50 µM; in [7], 13.9 µM; in [10], above 50 µM; in series [8], 20.9 µM; in series [11], 13.2 µM. Further, in [9] (Table 2), the “%Helix in DPC” value was 18%.
On to “H-FVQWFSKFLGRIL-NH2 [TL, H-Phe-Val-Gln-Trp-Phe-Ser-Lys-Phe-Leu-Gly-Arg-Ile-Leu-NH2, reference compound]”, for which the CC50 in [1] is 19.6 µM. The hemolytic activity entry in [4] is reported as “practically devoid of hemolytic activity”. In addition, the “concentration showing residual hemolytic activity” value in series [4] (red blood cells) was at least 50 µM. In addition, the “cytotoxicity on PBMCs” value in series [5] is “minor damage”.
